“Also recorded” adds a separate entry of the source.
These substances were tested on peptide-pulsed T2 cells (assay: IFN-gamma ELISPOT assay on CTLs induced with INHBB-derived peptides). Conditions: target cells pulsed with the peptide vs control not pulsed, after 3rd round of stimulation, day 21.
Type: cell-based, human
Excerpt: Monocyte-derived dendritic cells (DCs) were used as antigen-presenting cells (APCs) to induce cytotoxic T lymphocyte (CTL) responses against peptides presented on human leukocyte antigen (HLA). DCs were generated in vitro as described elsewhere (Nakahara S et al., Cancer Res 2003 Jul 15, 63(14): 4112-8). Specifically, peripheral blood mononuclear cells (PBMCs) isolated from a normal volunteer (HLA-A*0201 positive) by Ficoll-Plaque (Pharmacia) solution were separated by adherence to a plastic tissue culture dish (Becton Dickinson) so as to enrich them as the monocyte fraction. The monocyte-enriched population was cultured in the presence of 1000 U/ml of granulocyte-macrophage colony-stimulating factor (GM-CSF) (R&D System) and 1000 U/ml of interleukin (IL)-4 (R&D System) in AIM-V Medium (Invitrogen) containing 2% heat-inactivated autologous serum (AS). After 7 days of culture, the cytokine-induced DCs were pulsed with 20 mcg/ml of each of the synthesized peptides in the presence of 3 mcg/ml of beta2-microglobulin for 3 hr at 37 degrees C. in AIM-V Medium. The generated cells appeared to express DC-associated molecules, such as CD80, CD83, CD86 and HLA class II, on their cell surfaces (data not shown). These peptide-pulsed DCs were then inactivated by Mitomycin C (MMC) (30 mcg/ml for 30 min) and mixed at a 1:20 ratio with autologous CD8+ T cells, obtained by positive selection with CD8 Positive Isolation Kit (Dynal). These cultures were set up in 48-well plates (Corning); each well contained 1.5×10^4 peptide-pulsed DCs, 3×10^5 CD8+ T cells and 10 ng/ml of IL-7 (R&D System) in 0.5 ml of AIM-V/2% AS medium. Three days later, these cultures were supplemented with IL-2 (CHIRON) to a final concentration of 20 IU/ml. On day 7 and 14, the T cells were further stimulated with the autologous peptide-pulsed DCs. The DCs were prepared each time by the same way described above. CTL was tested against peptide-pulsed T2 cells after the 3rd round of peptide stimulation on day 21 (Tanaka H et al., Br J Cancer 2001 Jan. 5, 84(1): 94-9; Umano Y et al., Br J Cancer 2001 Apr. 20, 84(8): 1052-7; Uchida N et al., Clin Cancer Res 2004 Dec. 15, 10(24): 8577-86; Suda T et al., Cancer Sci 2006 May, 97(5): 411-9; Watanabe T et al., Cancer Sci 2005 Aug, 96(8): 498-506).
Specifically, peptide-pulsed T2 (1×10^4/well) was prepared as stimulator cells. Cultured cells in 48 wells were used as responder cells. IFN-gamma ELISPOT assay and IFN-gamma ELISA assay were performed under manufacture procedure.
“INHBB-A02-9-313: 9-mer HLA-A*0201 binding epitope peptide derived from INHBB (RLIGWNDWI)” was tested, and the “IFN-gamma production of peptide-induced CTLs (specific CTL activity)” value (“IFN-gamma production … (specific CTL activity)” below) was “potent IFN-gamma production as compared to the control; also recorded: potent IFN-gamma production as compared with the control”.
In the case of “INHBB-A02-10-179: 10-mer HLA-A*0201 binding epitope peptide derived from INHBB (WLYLKLLPYV)”, the “IFN-gamma production … (specific CTL activity)” value was “potent IFN-gamma production as compared to the control; also recorded: potent IFN-gamma production as compared with the control”.
With “INHBB-A02-10-256: 10-mer HLA-A*0201 binding epitope peptide derived from INHBB (QELAVVPVFV)” the “IFN-gamma production … (specific CTL activity)” value was “potent IFN-gamma production as compared to the control; also recorded: potent IFN-gamma production as compared with the control”.
With “INHBB-A02-10-173: 10-mer HLA-A*0201 binding epitope peptide derived from INHBB (VVQASLWLYL)” the “IFN-gamma production … (specific CTL activity)” value was “potent IFN-gamma production as compared to the control; also recorded: potent IFN-gamma production as compared with the control”.
With “INHBB-A02-10-85: 10-mer HLA-A*0201 binding epitope peptide derived from INHBB (RLQMRGRPNI)” the “IFN-gamma production … (specific CTL activity)” value was “potent IFN-gamma production as compared to the control; also recorded: potent IFN-gamma production as compared with the control”.
For “INHBB-A02-9-8: 9-mer HLA-A*0201 binding epitope peptide derived from INHBB (ALGAACLLL)”, the “IFN-gamma production … (specific CTL activity)” value was “potent IFN-gamma production as compared to the control; also recorded: potent IFN-gamma production as compared with the control”.
“INHBB-A02-9-213: 9-mer HLA-A*0201 binding epitope peptide derived from INHBB (NMVEKRVDL)” was tested, and the “IFN-gamma production … (specific CTL activity)” value was “potent IFN-gamma production as compared to the control; also recorded: potent IFN-gamma production as compared with the control”.
“INHBB-A02-9-250: 9-mer HLA-A*0201 binding epitope peptide derived from INHBB (VQCDSCQEL)” was tested, and the “IFN-gamma production … (specific CTL activity)” value was “potent IFN-gamma production as compared to the control; also recorded: potent IFN-gamma production as compared with the control”.
For “INHBB-A02-9-257: 9-mer HLA-A*0201 binding epitope peptide derived from INHBB (ELAVVPVFV)”, the “IFN-gamma production … (specific CTL activity)” value was “potent IFN-gamma production as compared to the control; also recorded: potent IFN-gamma production as compared with the control”.
In the case of “INHBB-A02-10-237: 10-mer HLA-A*0201 binding epitope peptide derived from INHBB (ALFERGERRL)”, the “IFN-gamma production … (specific CTL activity)” value was “potent IFN-gamma production as compared to the control; also recorded: potent IFN-gamma production as compared with the control”.
In the case of “INHBB-A02-10-162: 10-mer HLA-A*0201 binding epitope peptide derived from INHBB (FISNEGNQNL)”, the “IFN-gamma production … (specific CTL activity)” value was “potent IFN-gamma production as compared to the control; also recorded: potent IFN-gamma production as compared with the control”.
For “INHBB-A02-10-313: 10-mer HLA-A*0201 binding epitope peptide derived from INHBB (RLIGWNDWII)”, the “IFN-gamma production … (specific CTL activity)” value was “potent IFN-gamma production as compared to the control; also recorded: potent IFN-gamma production as compared with the control”.
With “INHBB-A02-9-139: 9-mer HLA-A*0201 binding epitope peptide derived from INHBB (RVSEIISFA)” the “IFN-gamma production … (specific CTL activity)” value was “potent IFN-gamma production as compared to the control; also recorded: potent IFN-gamma production as compared with the control”.
“INHBB-A02-9-174: 9-mer HLA-A*0201 binding epitope peptide derived from INHBB (VQASLWLYL)” was tested, and the “IFN-gamma production … (specific CTL activity)” value was “potent IFN-gamma production as compared to the control; also recorded: potent IFN-gamma production as compared with the control”.

The substances below were run on peptide-pulsed T2 cells (assay: IFN-gamma ELISA assay on expanded CTL line). Conditions: CTL line expanded from positive well #7, peptide-pulsed target vs target without peptide pulse.
Type: cell-based, human
Excerpt: Monocyte-derived dendritic cells (DCs) were used as antigen-presenting cells (APCs) to induce cytotoxic T lymphocyte (CTL) responses against peptides presented on human leukocyte antigen (HLA). DCs were generated in vitro as described elsewhere (Nakahara S et al., Cancer Res 2003 Jul 15, 63(14): 4112-8). Specifically, peripheral blood mononuclear cells (PBMCs) isolated from a normal volunteer (HLA-A*0201 positive) by Ficoll-Plaque (Pharmacia) solution were separated by adherence to a plastic tissue culture dish (Becton Dickinson) so as to enrich them as the monocyte fraction. The monocyte-enriched population was cultured in the presence of 1000 U/ml of granulocyte-macrophage colony-stimulating factor (GM-CSF) (R&D System) and 1000 U/ml of interleukin (IL)-4 (R&D System) in AIM-V Medium (Invitrogen) containing 2% heat-inactivated autologous serum (AS). After 7 days of culture, the cytokine-induced DCs were pulsed with 20 mcg/ml of each of the synthesized peptides in the presence of 3 mcg/ml of beta2-microglobulin for 3 hr at 37 degrees C. in AIM-V Medium. The generated cells appeared to express DC-associated molecules, such as CD80, CD83, CD86 and HLA class II, on their cell surfaces (data not shown). […]
“INHBB-A02-9-174: 9-mer HLA-A*0201 binding epitope peptide derived from INHBB (VQASLWLYL)” was tested, and the “IFN-gamma production / specific CTL activity of established CTL line” value was “potent IFN-gamma production as compared with the control”.

Same assay, conditions: CTL line expanded from positive well #7, peptide-pulsed target vs target without peptide pulse, listed as SEQ ID NO: 2
For “INHBB-A02-9-174: 9-mer HLA-A*0201 binding epitope peptide derived from INHBB (VQASLWLYL)”, the “IFN-gamma production / specific CTL activity of established CTL line” value was “higher specific CTL activity against the peptide-pulsed target as compared to the activity against target without peptide pulse”.

Source: patent publication US20110280898A1, “INHBB EPITOPE PEPTIDES AND VACCINES CONTAINING THE SAME” (Oncotherapy Science, Inc., priority 2008, published 2011)
